Columns and labels:
IL-6 = assay: LPS-induced IL-6 secretion in RAW264.7 cells (ELISA); format: cell-based, mouse; conditions: for IL-6 concentration (average ± deviation): then LPS 1 μg/ml, 24 hours
Experimental: In DMEM (Hyclone, Thermo Scientific) medium to which 10% Fetal Bovine Serum was added, RAW264.7 cells, a mouse macrophage family, were suspended at a concentration of 1×10^5 cells/ml, and the cells were maintained in a 5% CO2 humidified incubator at 37° C., and cultured. The cultured RAW264.7 cells were inoculated into a 48 well plate by 5×10^4 cells/ml and stabilized for 15 hours. Then, the culture solution was treated with a glycerol derivative compounds of the type shown in Table 2 and 3 below for 1 hour and then was treated with 1 μg/ml of Lipopolysaccaride (LPS) of a cell stimulator, and subsequent further incubation was conducted for 24 hours. Thereafter 0.5 ml of the culture supernatant was collected for each well and centrifuged (at 3000 rpm, 5 minutes) to recover the supernatant. The IL-6 level in the recovered supernatant was measured according to the manual provided by the Mouse IL-6 ELISA set (BD Biosciences). The day before ELISA was carried out, the IL-6 capture antibody was diluted in phosphate buffered saline, coated on a microwell, and then stored at 4° C. overnight. Each well was washed three times with a washing buffer solution and then blocked with 2% Bovine Serum Albumin (BSA) for 1 hour at room temperature. After washing with buffer solution three times, 100 μl of sample was dispensed into each well and left at room temperature for 2 hours. Detection antibody which was washed 3 times with washing buffer solution and diluted was dispensed into each well and allowed to react at room temperature for 1 hour and left at room temperature for 1 hour. Thereafter, the secondary HRP conjugated antibody was reacted at room temperature for 30 minutes, washed three times with a washing buffer solution, and treated with 50 μl of stop solution for each well, and then the optical density was measured at 450 nm with an ELISA microplate leader.

IL-4 = assay: PKC activator-induced IL-4 secretion in EL-4 cells (ELISA); format: cell-based, mouse; conditions: Table 11, sample 100 μg/ml for 2 hours, then PKC activator, 18 hours
Experimental: Thereafter 0.5 ml of the culture supernatant was collected for each well and centrifuged (at 3000 rpm, 5 minutes) to recover the supernatant. […] Thereafter, the secondary HRP conjugated antibody was reacted at room temperature for 30 minutes, washed three times with a washing buffer solution, and treated with 50 μl of stop solution for each well, and then the optical density was measured at 450 nm with an ELISA microplate leader.

CXCL8 (IL-8) = CXCL8 (IL-8) expression in Gemcitabine-stimulated THP-1 cells (ELISA); format: cell-based, human
Experimental: Thereafter 1.5 ml of the culture supernatant was collected for each well and centrifuged (at 3000 rpm, 5 minutes) to recover the supernatant.

STAT6 = assay: IL-4-induced STAT6 activity, pGL4-STAT6 luciferase reporter in A549 cells; format: cell-based
Experimental: In DMEM (Dulbecco Modified Eagle Medium, Hyclone, Thermo Scientific) medium to which 10% Fetal Bovine Serum was added, A549 cells were subcultured at a concentration of 1×10^5 cells/ml, and the cells were maintained in a 5% CO2 humidified incubator at 37° C., and cultured. The cultured A549 cells were inoculated into a 48 well plate by 1×10^5 cells/ml and stabilized for 18 hours. Thereafter, pGL4-STAT6 reporter vector containing a STAT6 binding promoter portion was mixed with Attractene to induce complex formation at room temperature for 15 minutes. This complex was treated with the cells and then further incubated for 24 hours. Thereafter, the culture solution was treated with a glycerol derivative compounds of the type shown in Table 8 and Table 9 below for 1 hour in the culture solution, and then IL-4 (2 ng/ml or 10 ng/ml) was further incubated for 20 hours for STAT6 activity. Thereafter, the culture supernatant was removed for each well, and the remaining cells were lysed with a cell lysis buffer, and then cell lysate was recovered. 90 μl of luciferase reagent was mixed with 10 μl of the recovered cell lysate, and the degree of fluorescence was confirmed using a luminometer.

STAT3 [1] = assay: IL-6-induced STAT3 activity, SEAP expression in HEK-Blue IL-6 cells; format: cell-based; conditions: for STAT3 activity SEAP expression(%) (average ± deviation): negative control = 100
Experimental: Two experiments were conducted as a method of confirming STAT3 activity. First, HEK-Blue™ IL-6 cells were used to confirm the degree of activity by STAT3-induced SEAP (secreted embryonic alkaline phosphatase) expression. Second, this is a method to check the degree of STAT3 activity by injecting the pGL4.47 [luc2P/SIE/Hygro] vector containing the sis-inducible element that binds to STAT3 into RAW264.7 cells. Table 4 below confirmed the STAT3 activity inhibitory ability of the derivative compound of the present invention using the first method.
In DMEM (Hyclone, Thermo Scientific) medium to which 10% Fetal Bovine Serum was added, HEK-Blue™ IL-6 cells were cultured at a concentration of 1×10^5 cells/ml, and the cells were maintained in a 5% CO2 humidified incubator at 37° C., and cultured. The cultured HEK-Blue™ IL-6 cells were inoculated by 1×10^5 cells/ml, and treat with a glycerol derivative compounds of the type shown in Table 3 below in the culture solution for 1 hour, and then IL-6 (5 ng/ml) was further incubated for 24 hours for STAT3 activity. Thereafter, the culture supernatant was collected for each well and centrifuged (at 3000 rpm, 5 minutes) to recover the supernatant. The SEAP expression level in the recovered supernatant was mixed with Quanti blue reagent and the supernatant at a ratio of 1:10 and left at 37° C. for about 30 minutes. Then, the SEAP concentration was confirmed at 650 nm wavelength using a spectrophotometer, and the results thereof are shown in Table 4 below.

HL-60 cells = assay: Migration of HL-60 cell line using Transwell; format: cell-based, human
Experimental: Then, the culture solution was treated with a glycerol derivative compounds of the type shown in Table 7 below for 1 hour and then was treated with Gemcitabine (2 μg/ml) of a cell stimulator, and subsequent further incubation was conducted for 24 hours. Thereafter 1.5 ml of the culture supernatant was collected for each well and centrifuged (at 3000 rpm, 5 minutes) to recover the supernatant. […] The day before Transmigration assay was carried out, a 1× Lamin I solution was treated in the upper Invasion Chamber and coated. […] Thereafter the upper chamber was removed, and the cells were attached to the bottom of the lower chamber by a centrifuge, and then the supernatant was removed. Cell dissociation/Calcein-AM solution was added and reacted for 1 hour. Then, the value obtained using a fluorescence spectroscopy was calculated by converting the number of cells.

STAT3 [2] = assay: STAT3 activity, pGL4.47 [luc2P/SIE/Hygro] luciferase reporter in RAW264.7 cells; format: cell-based, mouse
Experimental: Thereafter, the culture supernatant was removed for each well, and the remaining cells were lysed with a cell lysis buffer, and then cell lysate was recovered. 90 μl of luciferase reagent was mixed with 10 μl of the recovered cell lysate, and the degree of fluorescence was confirmed using a luminometer.

CCCCC/C=C\C/C=C\CCCCCCCC(=O)OC(COC(C)=O)COC(=O)CCCCCCCCCCCCCCC (stereo not drawn) [EC-18, 1-palmitoyl-2-linoleoyl-3-acetylglycerol]
decrease of IL-6 expression/secretion compared to the LPS-treated group (IL-6; LPS-stimulated): about 30%
IL-6 concentration (average ± deviation) (IL-6; Table 2, sample 100 μg/ml for 1 hour): 0.194 ± 0.011 ng/mL
IL-6 concentration (average ± deviation) (IL-6; Table 3, sample 100 μg/ml for 1 hour): 1.159 ± 0.036 ng/mL
IL-4 concentration (average ± deviation) (IL-4): 189.8 ± 38.5 pg/µL
reduction of CXCL8 expression (CXCL8 (IL-8)): about 20%
reduction of STAT6 activity (STAT6; IL-4-treated): about 50%
STAT6 activity_Luciferase activity (average ± deviation) (STAT6; Table 9, sample 100 μg/ml for 1 hour, then IL-4 10 ng/ml, 20 hours): 1281.5 ± 26.1
decrease of STAT3 activity compared to the IL-6-treated group (STAT3 [1]): about 25%
STAT3 activity SEAP expression(%) (average ± deviation) (STAT3 [1]; sample 100 μg/ml for 1 hour, then IL-6 5 ng/ml, 24 hours): 173.0 ± 7.9%
reduction of HL-60 cell migration, result in words (HL-60 cells; Transwell, comparison with negative control group or EC-18 (PLAG)): reduced to a degree similar to that of the negative control group
decrease of STAT3 activity (STAT3 [2]; LPS-treated): about 50%
STAT3 activity_Luciferase activity (average ± deviation) (STAT3 [2]; sample 100 μg/ml for 1 hour, then LPS 1 μg/ml, 18 hours, negative control = 100.00): 393.64 ± 46.12

Nc1ccn([C@@H]2O[C@H](CO)[C@@H](O)C2(F)F)c(=O)n1 [Gemcitabine]
increase of neutrophil cell migration compared to the negative control group (HL-60 cells; Gemcitabine-treated THP-1 cells): increased by about twice

IL-6: IL-6 cytokine used to induce STAT3 activity
STAT3 activity SEAP expression(%) (average ± deviation) (STAT3 [1]; IL-6 5 ng/ml alone): 228.8 ± 17.0%

B1: IL-4: IL-4 used to induce STAT6 activity in A549 cells (protein, UniProt P05112 25-153, looked up)
Interleukin-4: HKCDITLQEIIKTLNSLTEQKTLCTELTVTDIFAASKNTTEKETFCRAATVLRQFYSHHEKDTRCLGATAQQFHRHKQLIRFLKRLDRNLWGLAGLNSCPVKEANQSTLENFLERLKTIMREKYSKCSS
STAT6 activity_Luciferase activity (average ± deviation) (STAT6; Table 9, IL-4 alone, concentration printed 10): 2134.5 ± 17.6
